Laboratory results taken from PMC10708030, “Cytotoxic Natural Products Isolated from Cryptogramma crispa (L.) R. Br” (Molecules, 2023).

Key:
[1] = test system: acute myeloid leukaemia cell line MOLM13; experiment: Cytotoxicity, WST-1 metabolic activity, MOLM13 cells; assay type: cell-based; conditions: Homo sapiens, MOLM-13; 72 h incubation, metabolic activity (WST-1), 3 independent experiments
Experimental: (§1) Stock solutions were prepared by dissolving pure compounds to a final concentration of 20 mM in DMSO. The normal rat kidney epithelial cells (NRK, ATCC no.: CRL-6509) and rat cardiomyoblasts (H9c2, ATCC no.: CRL-1446) were cultured in DMEM medium supplemented with 10% foetal bovine serum (FBS, Invitrogen, Carlsbad, CA, USA). When the cells reached 80% confluence, they were detached in a mild trypsin treatment (0.33 mg/mL trypsin for 5 min at 37 °C), centrifuged (160× g, 4 min), and reseeded in fresh medium to 25% confluence.
The AML cell line MOLM13 (DSMZ no.: ACC554 [24]) was cultured in RPMI-1640 medium enriched with 10% FBS 8mM L-glutamine (Sigma Life Science, London, UK). […]
(§2) […] The plates were further incubated for two hours before the signal was recorded at 450 nm with a reference at 620 nm. […]
(§3) After the recording of WST-1, the cells were then fixed with 2% buffered formaldehyde (pH 7.4) with 0.01 mg/mL of the DNA-specific fluorescent dye, Hoechst 33342. The presence of dead (apoptotic or necrotic) cells was verified via differential interference contrast and fluorescence microscopy as previously described by Oftedal et al. and Myhren et al..
(§4) EC50 values were determined using four-parameter regression analysis described by Viktorsson et al. using SigmaPlot v14 software (Systat Software Inc., San Jose, CA, USA).

[2] = test system: rat cardiomyoblasts (H9c2); experiment: Cytotoxicity, WST-1 metabolic activity, H9c2 cells; assay type: cell-based; conditions: 72 h incubation, metabolic activity (WST-1), three experiments
Experimental: as §1
(§5) All media were supplemented with 1 IU/mL penicillin and 1 mg/mL streptomycin (both from Cambrex, Liège, Belgium) and incubated in a humidified atmosphere (37 °C, 5% CO2). […]
as §2, §3, §4

[3] = test system: normal rat kidney epithelial cells (NRK); experiment: Cytotoxicity, WST-1 metabolic activity, NRK cells; assay type: cell-based; conditions: Epithelial cell, 72 h incubation, metabolic activity (WST-1), three experiments
Experimental: as §1, §5, §2, §3, §4

[4] = cited from earlier work
[5] = test system: myeloid leukaemia HL 60 cells; conditions: cited from earlier work

| SMILES | EC50 [1] | EC50 [2] | EC50 [3] | antibacterial activity [4] | cytotoxic effects against HL 60 cells [5] |
| --- | --- | --- | --- | --- | --- |
| Cc1cc2c(c(C)c1CCOC1OC(CO)C(O)C(O)C1O)C(=O)C(C)(C)C2OC(=O)CC(=O)O [Compound 14, 3(R)-O-malonyl pteroside D] | 197.88 ± 0.18 µM | > 200 µM | > 200 µM |  |  |
| CC1=C2C(=CC(C)(C)[C@@H]2O)C(=O)[C@](C)(O)C12CC2 [illudin M] |  |  |  | significant antibacterial activity | 6 to 100 nM |
| CC1=C2C(=C[C@@](C)(CO)[C@@H]2O)C(=O)[C@](C)(O)C12CC2 [illudin S] |  |  |  | significant antibacterial activity |  |
